Measurements reported in patent US5756505A, “N-acylpiperazine derivative, antibacterial drug and anti-ulcer drug” (Shiseido Co., Ltd., priority 1995, dated 1998).
Converted amounts (≈) assume the structure as drawn.

Key:
gastric mucosa = experiment: PD: Gastric Mucosal Integrity Test; type: in vivo, rat (male Crj:SD); conditions: rat, 100 mg/kg into ex vivo chamber, 60 minutes
Protocol: PD: Gastric Mucosal Integrity Test
In this case, since the sample compound has a necrotizing effect, it is inappropriate as an anti-ulcer medicament.
Therefore, the gastric mucosal potential difference (PD), which reflects the integrity of the gastric mucosa, is measured so as to confirm that the sample compound has no damasing effect on gastric mucosa, which is toxicity at gastric mucosal level.
Male Crj:SD rats (7 to 8-week-old) was fasted overnight, but allowed free access to water, and then, under urethane anesthesia (1.25 g/kg, i.p.), fixed to a cork board on its back. The abdomen of each rat was incised, and a small incision was made in the forestomach. Then, the inside of the stomach was washed with physiological saline heated at 37° C. From the forestomach, along the greater curvature thereof, the stomach was incised without damaging blood vessels. After the height of the cork board was adjusted on a jack, the stomach was mounted on ex vivo chamber. The area of the gastric mucosa exposed to the inside of this chamber was 2.5 cm^2. The inside of the chamber was perfused with physiological saline warmed at 37° C. by micro tube pump. By using an agar bridge containing 3M KCl, the potential difference between the chamber and the abdominal cavity was measured by a PD meter. Here, the rectal temperature was measured to control the body temperature during the experiment. After the PD was sufficiently stabilized, the perfusate was stopped and then 100 mg/10 ml/kg of the sample compound dissolved or suspended in an aqueous solution of 0.5% sodium carboxymethyl cellulose or 0.05% Tween 80 were administered into the chamber, while PD was recorded for 60 minutes. To a control, the vehicle was administered.
The change in PD during 60 minutes after the administration of 100 mg/kg of the sample compound was collectively studied and, with reference to the positive control, classified into 5 levels as follows:
5: Same as the control with no recognizable damage at all.
3: Though a weak decrease in PD and a possibility of a weak mucosal damage is recognized, there is no substantial problem.
2: Medium degree of decrease in PD is found and a mucosal damage is recognized.
1: Heavy degree of decrease in PD is found and a remarkable mucosal damage is recognized.

Helicobacter pyroli = experiment: AHP: Antibacterial Activity Test Against Helicobacter pyroli; type: cell-based, Helicobacter pyroli NCTC 11637; conditions: for MIC: Helicobacter, NCTC11637, 168 h, H. pyroli NCTC 11637, agar dilution, 7 days, read-out: AHP: minimum inhibitory concentration (MIC)
Protocol: AHP: Antibacterial […] Against Helicobacter pyroli i)Meaning The minimum inhibitory concentration (MIC) against Helicobacter pyroli (microaerophilic gram-negative bacterium which is supposed to deeply involve in pathogenesis, relapse, and recrudescence of ulcer, referred to as "HP" in the following) is measured so as to find out compounds which have antimicrobial activity against Helicobacter pyroli. ii)Method MICs were determined by the agar dilution method. […] Grown colonies were transfered to the same plate and cultured for 3 days under the same condition. […] A 1,000 μg/ml solution of the sample compound containing DMSO not more than 25% was […] diluted 2-fold in sterile purified water. 100 μl volume from each dilution was mixed thoroughly with 900 μl of brucella agar supplemented with 5% horse blood and solidified in a 24 well micro plate. 10 μl of the bacterial suspension (about 10^3 cfu) was inoculated on this plate and cultured for 7 days under the same condition as that of preculture.

[1] = test system: isolated gastric fundic gland; experiment: CAP: Acid Secretion Inhibition Test In Vitro ([14C]-aminopyrine uptake); type: cell-based, rabbit (male Japanese White); conditions: final concentration 10^-5 M, histamine 10^-5 M, rabbit gastric fundic gland; for inhibition at 10 µM: Oryctolagus cuniculus, read-out: CAP: acid secretion inhibitory rate
Protocol: CAP: Acid Secretion Inhibition Test In Vitro
The acid secretion inhibitory activity in a cell level is studied. It can also be used for studying the mechanism of the effect. […]
ii-a) Preparation of isolated gastric fundus gland suspension
First, an isolated gastric fundic gland sample was prepared. Namely, a male Japanese White rabbit (2.5 to 3 kg) was anesthetized to death with Nembutal™ and then the abdomen was incised. Immediately thereafter, the stomach was removed and, after its pyloric and cardiac antrum were severed, incised along its greater curvature into two sheets. The gastric contents adhering to the mucosal surface was washed out with ice-cooled PBS (-) and then carefully washed therein. The gastric wall was spread on a cork board with its mucosal surface facing up and the feed and mucus thereon were completely removed with sterile gauze. The mucosa was separated therefrom by a spatula and then collected in ice-cooled PBS (-). After being washed twice with PBS (-), the mucosa was minced into 2-3mm^3 pieces by scissors. These pieces were further washed twice with a nutrient solution. The nutrient solution comprises 132.4 mM of NaCl, 5.4 mM of KCl, 5 mM of Na2 HPO4 ·12H2 O, 1 mM of NaH2 PO4 ·2H2 O, 1.2 mM of MgSO4, 1 mM of CaCl2, 25 mM of HEPES, 2mg/ml of glucose, and 1 mg/ml of BSA. Into 70 ml of the nutrient solution containing 1 mg/ml of collagenase, minced mucosal pieces were dispersed and intensely stirred in a conical flask with a stirrer at 37° C. for 40 to 60 minutes. During this period, 100% O2 was sprayed on the nutrient solution surface and the pH was appropriately measured such that it was immediately adjusted to pH 7.4, when the value was therebelow, with a base. The nutrient solution was added to the reaction solution so as to attain the total amount of about 200 ml. After being filtered through a mesh, the suspension was divisionally introduced into 50 ml centrifuge tubes and left for 15 minutes such that gastric fundic gland was deposited. The supernatant was repeatedly removed by an aspirator, dispersed in the nutrient solution, and then left such that the gastric fundic gland was washed three times. At this time, without using a pipette, the suspension was alternately introduced into two centrifuge tubes so as to effect dispersion. The number of cells was counted under microscope and adjusted to 1.6×10^6 cells/ml. […]
ii-b) [^14 C]-aminopyrine uptake test
Then, [^14 C]-aminopyrine uptake test was performed. After an Eppendorf tube was weighed, 10 μl (final concentration: 10^-5 M) of histamine dissolved in the above-mentioned nutrient solution, 10 μl (final concentration: 10^-5 M) of the test compound dissolved in DMSO, and 10 μl (final concentration: 0.05 μCi/ml) of [^14 C]-aminopyrine diluted with the nutrient solution were introduced therein and then 970 μl of the isolated gastric fundic gland suspension prepared above were added thereto. Subsequently, this mixture was shaken at 37° C. for 40 minutes at 125 cycles/minute. After being centrifuged for 30 minutes 200 μl of its supernatant was collected into a mini-vial, while the rest was removed by an aspirator. The gland pellet was completely dried as the tube with its lid being opened was kept for one night in a drying oven at 80° C. and then the lid was closed and the weight was determined at room temperature. Then 100 μl of 1N KOH were added thereto and the tube with its lid being closed was treated at 60° C. for 1 to 2 hours so as to dissolve the pellet. Then, the contents thereof were transferred to a mini-vial. Into the mini-vial containing the supernatant or gland pellet, 4 ml of Atomlite™ were added and then the radioactivity was measured by a liquid scintillation counter. Here, after the radioactivity of the gland pellet was corrected by using a sample in which 20 mM of NaSCN were added so as to cancel the hydrogen ion concentration gradient, the integration ratio of aminopyrine specifically trapped by the gland pellet was calculated. […]

PD: change in gastric mucosal potential difference, level (gastric mucosa) | MIC (Helicobacter pyroli) [µg/mL] | Structure (SMILES) | inhibition at 10 µM [1] [%] | antibacterial activity against Helicobacter pyroli (in words) (Helicobacter pyroli) | CAP: acid secretion inhibitory rate [1] [%]
3 | 12.5 (≈ 29.3 µM) | CC(C)Cc1cc(C(=O)N2CCN(CC(C)C)CC2)ccc1OCc1ccccc1F [Example 18, 1-[4-(2-fluorobenzyloxy)-3-isobutylbenzoyl]-4-isobutylpiperazine] | 100 |  | 
5 |  | CC(C)Cc1cc(C(=O)N2CCN(CC(C)C)CC2)ccc1OCc1ccc(F)cc1 [Example 21, 1-[4-(4-fluorobenzyloxy)-3-isobutylbenzoyl]-4-isobutylpiperazine] | 100 | improved | 
5 | 12.5 | CC(C)Cc1cc(C(=O)N2CCN(CC(C)C)CC2)ccc1OCc1ccc(F)cc1.Cl [Example 22, 1-[4-(4-fluorobenzyloxy)-3-isobutylbenzoyl]-4-isobutylpiperazine hydrochloride] |  | improved | 98
2 | 6.25 | CC(C)Cc1cc(C(=O)N2CCN(CC(C)C)CC2)ccc1OCc1ccc(F)cc1F.Cl [Example 24, 1-[4-(2,4-difluorobenzyloxy)-3-isobutylbenzoyl]-4-isobutylpiperazine hydrochloride] | 99 |  | 
